Results from the C3SDB collision cross section collection.

Conditions: instrument: DT, stepped-field

Compound	collision cross section (N2) ([M+H]+)	collision cross section (N2) ([M+Na]+)	collision cross section (N2) ([M+2Na-H]+)	also measured
CCCCCC/C=C\CCCCCCCCCC(=O)O[C@H](COC(=O)CCCCCCC/C=C\CCCCCC)COP(=O)([O-])OCC[N+](C)(C)C [PC(34:02)]	279.51 Å²	283.1 Å²		collision cross section (N2) ([M+Cl]-): 289.37 Å²; collision cross section (N2) ([M+HCOO]-): 289.31 Å²; collision cross section (N2) ([M+K]+): 283.28 Å²
CCCC/C=C\CCCCCCCC(=O)OC[C@H](COP(=O)([O-])OCC[N+](C)(C)C)OC(=O)CCCCCCCCC/C=C\C/C=C\CCCCC [PC(34:03)]	277.12 Å²	281.98 Å²		collision cross section (N2) ([M+Cl]-): 287.96 Å²; collision cross section (N2) ([M+HCOO]-): 288.8 Å²
CCCCCCCC/C=C\CCCCCCCC(=O)O[C@H](COC(=O)CCCCCCCCCCCCCCCC)COP(=O)([O-])OCC[N+](C)(C)C [PC(35:01)]	284.63 Å²	287.14 Å²		
CCCCCCCCCCC/C=C\CCCCC(=O)O[C@H](COC(=O)CCCCCCCCCCCCCCCCC)COP(=O)([O-])OCC[N+](C)(C)C [PC(36:01)]	288.22 Å²	290.25 Å²	292.02 Å²	collision cross section (N2) ([M+Cl]-): 296.27 Å²; collision cross section (N2) ([M+HCOO]-): 296.46 Å²; collision cross section (N2) ([M+K]+): 291.07 Å²
CCCCCCCC/C=C\C/C=C\CCCCC(=O)O[C@H](COC(=O)CCCCCCC/C=C\CCCCCCCC)COP(=O)([O-])OCC[N+](C)(C)C [PC(36:03)]		287.02 Å²	288.51 Å²	collision cross section (N2) ([M+Cl]-): 293.42 Å²; collision cross section (N2) ([M+HCOO]-): 293.56 Å²
CCCCC/C=C\C/C=C\CCCCCCCCCC(=O)O[C@H](COC(=O)CCCCCCCCCCCCCCCCC)COP(=O)([O-])OCC[N+](C)(C)C [PC(38:02)]				collision cross section (N2) ([M+Cl]-): 300.55 Å²
CCCCC/C=C\C/C=C\C/C=C\CCCCCCC(=O)O[C@H](COC(=O)CCCCCCC/C=C\CCCCCCCC)COP(=O)([O-])OCC[N+](C)(C)C [PC(38:04)]				collision cross section (N2) ([M+Cl]-): 298.46 Å²; collision cross section (N2) ([M+HCOO]-): 298.03 Å²
CCCCC/C=C\C/C=C\C/C=C\C/C=C\CCCC(=O)O[C@H](COC(=O)CCCCCCCCCCCCCCCCCCC)COP(=O)([O-])OCC[N+](C)(C)C [PC(40:04)]		297.42 Å²		
CC/C=C\C/C=C\C/C=C\CCCCCCCC(=O)O[C@H](COC(=O)CCCCCCCCCCCCCCC)COP(=O)(O)OCCN [PE(34:03)]	265.93 Å²	271.73 Å²	271.16 Å²	collision cross section (N2) ([M-H]-): 263.76 Å²
CCCC/C=C\CCCCCCCC(=O)OC[C@H](COP(=O)(O)OCCN)OC(=O)CCCCCCCCCCCCCCCCCCCC [PE(35:01)]		279.26 Å²	279.57 Å²	
CCCCC/C=C\C/C=C\CCCCCCCCCC(=O)O[C@H](COC(=O)CCCCCCC/C=C\CCCCCC)COP(=O)(O)OCCN [PE(36:03)]	273.34 Å²	277.57 Å²	279.42 Å²	collision cross section (N2) ([M+K]+): 278.94 Å²; collision cross section (N2) ([M-H]-): 269.84 Å²
CCCCCCCC/C=C\C/C=C\CCCCC(=O)OC[C@H](COP(=O)(O)OCCN)OC(=O)CCCC/C=C\C/C=C\CCCCCCCC [PE(36:04)]			277.05 Å²	collision cross section (N2) ([M+K]+): 277.24 Å²; collision cross section (N2) ([M-H]-): 269.7 Å²
CCCCC/C=C\C/C=C\C/C=C\CCCCCCC(=O)O[C@H](COC(=O)CCCCCCC/C=C\C/C=C\CCCCC)COP(=O)(O)OCCN [PE(38:05)]			283.55 Å²	collision cross section (N2) ([M+K]+): 282.77 Å²; collision cross section (N2) ([M-H]-): 274.82 Å²
CCCCC/C=C\C/C=C\C/C=C\C/C=C\CCCCCC(=O)O[C@H](COC(=O)CCCCCCC/C=C\C/C=C\CCCCC)COP(=O)(O)OCCN [PE(40:06)]			287.86 Å²	collision cross section (N2) ([M-H]-): 280.5 Å²
CCCCC/C=C\C/C=C\C/C=C\C/C=C\CCCCCC(=O)O[C@H](COC(=O)CCC/C=C\C/C=C\C/C=C\C/C=C\CCCCC)COP(=O)(O)OCCN [PE(42:08)]		290.41 Å²		
CC/C=C\C/C=C\C/C=C\C/C=C\C/C=C\C/C=C\CCC(=O)O[C@H](COC(=O)CCCCCC/C=C\C/C=C\C/C=C\CCCCC)COP(=O)(O)OCCN [PE(42:09)]		288.64 Å²		
CCCC/C=C\CCCCCCCC(=O)O[C@H](COCCCCCCCCCCCCCCCCCC)COP(=O)(O)OCCN [PE(o32:01)]			268.35 Å²	

Compound	collision cross section (N2) ([M+H]+)	collision cross section (N2) ([M+Na]+)	collision cross section (N2) ([M+2Na-H]+)	also measured
CCCCC/C=C\C/C=C\CCCCCCCC(=O)O[C@H](COCCCCCCCCCCCCCCCC)COP(=O)(O)OCCN [PE(o34:02)]		273.65 Å²	273.55 Å²	
CCCCC/C=C\C/C=C\C/C=C\CCCCC(=O)O[C@H](COCCCCCCCCCCCCCCCCCC)COP(=O)(O)OCCN [PE(o36:03)]	272.47 Å²	277.92 Å²	279.47 Å²	
CCCCC/C=C\C/C=C\C/C=C\C/C=C\CCCC(=O)O[C@H](COCCCCCCCCCCCCCCCC)COP(=O)(O)OCCN [PE(o36:04)]			278.13 Å²	
CCCCC/C=C\C/C=C\C/C=C\C/C=C\C/C=C\CCC(=O)O[C@H](COCCCCCCCCCCCCCCCC)COP(=O)(O)OCCN [PE(o38:05)]			282.48 Å²	
CCCCC/C=C\C/C=C\C/C=C\C/C=C\CCCCCC(=O)O[C@H](COCCCCCCCCCCCCCCCCCC)COP(=O)(O)OCCN [PE(o40:04)]			293.52 Å²	
CCCCCCCC/C=C\CCCCCCCC(=O)O[C@H](COC(=O)CCCCCCCCCCCCCCCCC)COP(=O)(O)OC[C@H](N)C(=O)O [PS(36:01)]	283.39 Å²		287.95 Å²	collision cross section (N2) ([M+K]+): 287.48 Å²; collision cross section (N2) ([M-H]-): 282.92 Å²
CCCCC/C=C\C/C=C\C/C=C\C/C=C\CCCCCC(=O)OC[C@H](COP(=O)(O)OC[C@H](N)C(=O)O)OC(=O)CCCCCCCCCCCCC [PS(36:04)]			281.53 Å²	
CCCCCC/C=C\CCCCCCCC(=O)OC[C@H](COP(=O)(O)OC[C@H](N)C(=O)O)OC(=O)CCCCCCCCC/C=C\CCCCCCCCCC [PS(38:02)]	287.73 Å²		292.46 Å²	collision cross section (N2) ([M-H]-): 287.56 Å²
CCCCC/C=C\C/C=C\CCCCCCCCCCCC(=O)O[C@H](COC(=O)CCCCCCCCCCCCCCCCC)COP(=O)(O)OC[C@H](N)C(=O)O [PS(40:02)]	294.02 Å²		299.44 Å²	
CCCCC/C=C\C/C=C\CCCCCCCCCCCC(=O)O[C@H](COC(=O)CCCCCCC/C=C\CCCCCCCC)COP(=O)(O)OC[C@H](N)C(=O)O [PS(40:03)]	292.62 Å²	296.28 Å²		
CCCCC/C=C\C/C=C\C/C=C\C/C=C\CCCCCC(=O)O[C@H](COC(=O)CCCCCCC/C=C\C/C=C\CCCCC)COP(=O)(O)OC[C@H](N)C(=O)O [PS(40:06)]	287.73 Å²	291.7 Å²	295.61 Å²	collision cross section (N2) ([M+K]+): 292.76 Å²; collision cross section (N2) ([M-H]-): 289.09 Å²
CC/C=C\C/C=C\C/C=C\CCCCCCCC(=O)O[C@H](COC(=O)CCCCC/C=C\C/C=C\C/C=C\C/C=C\CCCCC)COP(=O)(O)OC[C@H](N)C(=O)O [PS(40:07)]		289.65 Å²	290.15 Å²	collision cross section (N2) ([M-H]-): 287.37 Å²
CC/C=C\C/C=C\C/C=C\C/C=C\C/C=C\CCCC(=O)O[C@H](COC(=O)CCCCCC/C=C\C/C=C\C/C=C\CCCCC)COP(=O)(O)OC[C@H](N)C(=O)O [PS(40:08)]			287.97 Å²	
CC/C=C\C/C=C\C/C=C\C/C=C\C/C=C\CCCC(=O)OC[C@H](COP(=O)(O)OC[C@H](N)C(=O)O)OC(=O)CCCCCCCCCCCCCCCCCCCC [PS(41:05)]			298.43 Å²	
CCCCCCCCCC/C=C\CCCCCCCCCC(=O)O[C@H](COC(=O)CCCCCCCCCCCCCCCCCCC)COP(=O)(O)OC[C@H](N)C(=O)O [PS(42:01)]	301.86 Å²	303.25 Å²		
CC/C=C\C/C=C\C/C=C\C/C=C\C/C=C\C/C=C\CCC(=O)O[C@H](COC(=O)CCCCCCCCC/C=C\CCCCCCCC)COP(=O)(O)OC[C@H](N)C(=O)O [PS(42:07)]			296.35 Å²	
CCCCC/C=C\C/C=C\C/C=C\C/C=C\CCCCCC(=O)OC[C@H](COP(=O)(O)OC[C@H](N)C(=O)O)OC(=O)CCCCCCCCC/C=C\CCCCCCCCCC [PS(44:05)]			306.87 Å²	
